Assay results reported in paper PMC7969873 (Cell Reports, 2021).
Like-named read-outs stand apart in the source and are kept apart here.

What was measured:
[1] = test system: SARS-CoV-2; format: cell-based; settings: 250 nM, Vero E6 cells, 48 h
[2] = test system: SARS-CoV-2; settings: HeLa-ACE2 cells
[3] = test system: SARS-CoV-2; experiment: microbe, parasite or virus in culture; format: cell-based; settings: Severe acute respiratory syndrome coronavirus 2, Calu-3 cells, read-out: IC50, SARS-CoV-2 viral titer
[4] = test system: SARS-CoV-2; experiment: microbe, parasite or virus in culture; format: cell-based; settings: Severe acute respiratory syndrome coronavirus 2, A549-ACE2, 24 h, 24 h, read-out: IC50, SARS-CoV-2 immunostaining signal
[5] = HeLa-ACE2 uninfected host cell cytotoxicity counter screen; format: cell-based; settings: human, uninfected HeLa-ACE2 cells; read-out: median cytotoxic concentration (CC50)
Method: Compounds were acoustically transferred into 1,536-well μclear plates (Greiner Part. No. 789091). HeLa-ACE2 cells were maintained as described for the infection assay and seeded in the assay-ready plates at 400 cells/well in DMEM with 2% FBS and plates were incubated for 24 hours at 37°C 5% CO2. To assess cell viability, the Image-iT DEAD green reagent (Thermo Fisher) was used according to manufacturer instructions. Cells were fixed with 4% paraformaldehyde, and counterstained with DAPI.

[6] = test system: SARS-CoV-2; experiment: microbe, parasite or virus in culture; format: cell-based; settings: for IC50: IFA, read-out: IC50, inhibition of SARS-CoV-2 infectivity
[7] = test system: SARS-CoV-2; experiment: SARS-CoV-2 infection of HEK293-ACE2 cells (IFA); format: cell-based; settings: 250 nM, pre-treated 24 hours, one day post-infection
[8] = test system: SARS-CoV-2; format: cell-based; settings: hiPSC-CMs; 250 nM
[9] = test system: hiPSC-CMs; experiment: Cardiomyocyte beating / in vitro cardiotoxicity in hiPSC-CMs; format: cell-based, human; settings: 250 nM
Method: Thus, we used the human-induced pluripotent stem-cell-derived cardiomyocyte (hiPSC-CM) system for antiviral drug testing against SARS-CoV-2. […] Thus, this cardiomyocyte system is useful for antiviral drug testing against SARS-CoV-2. […] The inhibition of virus production by berzosertib was evaluated by quantifying the infectious virus (TCID50) in the supernatant at various time points (Figure 2B). […] Infection of cardiomyocytes with SARS-CoV-2 was confirmed by specific staining of cardiac troponin T (cTnT) and viral spike proteins (Figure 2E). Untreated SARS-CoV-2-infected cells had infection-mediated cell injury with disrupted troponin T fibers.

[10] = Severe acute respiratory syndrome coronavirus 2, Vero C1008, Vero E6 cells

For `CNC(=O)Nc1ccc(-c2nc(N3CC4CCC(C3)O4)c3cnn(C4CCC5(CC4)OCCO5)c3n2)cc1` [WYE-125132], the “antiviral activity (prevention of viral CPE) in primary screen” value (shortened to “antiviral activity … in primary screen”) [1] was “antiviral activity”.
For `CS(=O)(=O)N1CCc2c(-c3cnc(N)nc3)nc(N3CCOCC3)nc21` [CH5132799], the “antiviral activity … in primary screen” value [1] was “antiviral activity”.
In the case of `O=C1c2ccc(Nc3ccc(F)cc3F)cc2CCc2ccc(OC[C@H](O)CO)cc21` [Skepinone-L], the “antiviral activity … in primary screen” value [1] is reported as “antiviral activity”.
For `Nc1ccc(C(=O)Nc2cccc(-c3nc(N4CCOCC4)c4oc5ncccc5c4n3)c2)cn1` [YM201636], the “antiviral activity … in primary screen” value [1] was “antiviral activity”.
With `COc1cc2nccc(Oc3ccc(NC(=O)Nc4ccc(F)cc4F)c(F)c3)c2cc1OC` [Ki8751] the “antiviral activity … in primary screen” value [1] was “antiviral activity”.
In the case of `COc1ccc(-c2ccc3c(N4CCOC[C@@H]4C)nc(N4CCOC[C@@H]4C)nc3n2)cc1CO` [AZD8055], the “antiviral activity … in primary screen” value [1] is reported as “antiviral activity”.
In the case of `CCS(=O)(=O)Nc1ccc2c(c1)/C(=C(/Nc1ccc(CN3CCCCC3)cc1)c1ccccc1)C(=O)N2` [Hesperadin], the “antiviral activity … in primary screen” value [1] is reported as “antiviral activity”.
For `CO[C@H]1CC[C@H](N2C(=O)CNc3ncc(-c4ccc(C(C)(C)O)nc4)nc32)CC1` [CC-223, Onatasertib], the “antiviral activity … in primary screen” value [1] was “antiviral activity”.
For `NC(=O)c1ccc(N(C(N)=O)c2c(F)cccc2F)nc1-c1ccc(F)cc1F` [VX-702], the “antiviral activity … in primary screen” value [1] was “antiviral activity”.
With `CCC(CC)COC(=O)[C@H](C)N[P@](=O)(OC[C@H]1O[C@@](C#N)(c2ccc3c(N)ncnn23)[C@H](O)[C@@H]1O)Oc1ccccc1` [Remdesivir] the “median effective dose (ED50), percentage of infected cells” value [2] was 0.124 µM, the IC50 [3] was 0.15 µM and the IC50 [4] was 0.16 µM. The IC50 ([4]; A549-ACE2 cells, […]) was 0.2 µM and the CC50 at 24 h [5] was greater than 10 µM.
In the case of `COc1cc2c(Nc3ccc(NC(=O)c4ccccc4)cc3)ncnc2cc1OCCCN1CCOCC1` [ZM 447439], the “antiviral activity … in primary screen” value [1] is reported as “antiviral activity”.
For `C[C@H](Nc1ncnc2nc[nH]c12)c1cc2cccc(Cl)c2c(=O)n1-c1ccccc1` [IPI-145], the “antiviral activity … in primary screen” value [1] was “antiviral activity”.
With `O=C1NC(=O)/C(=C/c2ccc3c(c2)OC(F)(F)O3)S1` [AS-604850] the “antiviral activity … in primary screen” value [1] was “antiviral activity”.
In the case of `Cc1cn(-c2cc(NC(=O)c3ccc(C)c(Nc4nccc(-c5cccnc5)n4)c3)cc(C(F)(F)F)c2)cn1` [Nilotinib], the IC50 [6, 10] is reported as 0.05 to 0.125 µM, the “antiviral activity … in primary screen” value [1] is reported as “antiviral activity” and the “anti-viral activity in secondary screen” value [7] is reported as “not exhibited potent anti-viral activity”.
For IFN-α, the “blocking of SARS-CoV-2 infection (IFA)” value ([6]; Vero E6 cells, 48 hpi, hydroxychloroquine and EIDD-2801 10 μM) was “effectively blocked”.
In the case of `Cn1cc(C2=C(c3cn(C4CCN(Cc5ccccn5)CC4)c4ccccc34)C(=O)NC2=O)c2ccccc21` [Enzastaurin], the “antiviral activity … in primary screen” value [1] is reported as “antiviral activity”.
For `CN1CCN(Cc2ccc(-c3cnc4[nH]cc(-c5ccc6[nH]ccc6c5)c4c3)cc2)CC1` [URMC-099], the IC50 [6, 10] was 0.05 to 0.125 µM and the “antiviral activity … in primary screen” value [1] was “antiviral activity”.
For `Cc1ccc(C(=O)Nc2cccc(C(F)(F)F)c2)cc1Nc1nc(-c2cccnc2)nc2c1cnn2C` [NVP-BHG712], the “antiviral activity … in primary screen” value [1] was “antiviral activity”.
With `COc1cc2ncnc(Oc3cccc(NC(=O)Nc4cc(C(C)(C)C(F)(F)F)on4)c3)c2cc1OC` [CEP-32496] the “antiviral activity … in primary screen” value [1] was “antiviral activity”.
With `Cc1c(CN2CCN(C(=O)[C@H](C)O)CC2)sc2c(N3CCOCC3)nc(-c3cnc(N)nc3)nc12` [GDC-0980] the “antiviral activity … in primary screen” value [1] was “antiviral activity”.
With `CCCCCCCCCCCCCCCCCCOP(=O)([O-])OC1CC[N+](C)(C)CC1` [Perifosine] the “antiviral activity … in primary screen” value [1] was “antiviral activity”.
For `CNC(=O)c1cccc(-c2ccc3c(N4CCOC[C@@H]4C)nc(N4CCOC[C@@H]4C)nc3n2)c1` [AZD2014, Vistusertib], the IC50 [6, 10] was 0.034 µM, the IC50 ([6]; Vero E6 cells) was less than 0.025 µM and the “antiviral activity … in primary screen” value [1] was “antiviral activity”. For the same compound, the “anti-viral activity in secondary screen” value [7] was “not exhibited potent anti-viral activity”.
In the case of `O=c1ncn2nc(Sc3ccc(F)cc3F)ccc2c1-c1c(Cl)cccc1Cl` [VX-745], the “antiviral activity … in primary screen” value [1] is reported as “antiviral activity”.
In the case of `CS(=O)(=O)N1CCN(Cc2cc3nc(-c4cccc5[nH]ncc45)nc(N4CCOCC4)c3s2)CC1` [GDC-0941, Pictilisib], the “antiviral activity … in primary screen” value [1] is reported as “antiviral activity”.
In the case of `Cn1c(=O)n(-c2ccc(C(C)(C)C#N)cc2)c2c3cc(-c4cnc5ccccc5c4)ccc3ncc21` [Dactolisib], the “virus production (infectious virus, TCID50, in supernatant)” value [8] is reported as “inhibited viral production”, the IC50 [6, 10] is reported as 0.111 µM and the “cardiomyocyte beating (beats per minute)” value ([9]; SARS-CoV-2-infected hiPSC-CMs) is reported as “affected the cardiomyocyte functional beating”. The in vitro cardiotoxicity ([9]; hiPSC-CMs) was “had cardiotoxicity”.
With `CC(=O)Nc1nc(C)c(-c2ccc(Cl)c(S(=O)(=O)NCCO)c2)s1` [PIK-93] the “antiviral activity … in primary screen” value [1] was “antiviral activity”.
For `FC(F)c1nc2ccccc2n1-c1nc(N2CCOCC2)nc(N2CCOCC2)n1` [ZSTK474], the “antiviral activity … in primary screen” value [1] was “antiviral activity”.
For `Nc1ccc(-c2ccc3ncc4ccc(=O)n(-c5cccc(C(F)(F)F)c5)c4c3c2)cn1` [Torin 2], the IC50 ([6]; Vero E6 cells) was less than 0.025 µM and the “antiviral activity … in primary screen” value [1] was “antiviral activity”.
With `Cn1cc(-c2ccc3nnc(C(F)(F)c4ccc5ncccc5c4)n3n2)cn1` [JNJ-38877605] the “antiviral activity … in primary screen” value [1] was “antiviral activity”.
With `CSc1cccc(Nc2ncc3cc(-c4c(Cl)cccc4Cl)c(=O)n(C)c3n2)c1` [PD173955] the “antiviral activity … in primary screen” value [1] was “antiviral activity”.
With `Nc1ncnc2c1c(-c1cnc3[nH]ccc3c1)nn2C1CCCC1` [PP121] the “antiviral activity … in primary screen” value [1] was “antiviral activity”.
For `N#C/C(=C/c1ccc(O)c(O)c1)C(=O)NCc1ccccc1` [AG-490], the “antiviral activity … in primary screen” value [1] was “antiviral activity”.
In the case of `CC(C)(O)CNc1ncc(-c2ccnc(Nc3ccnc(Cl)c3)n2)c(CC2CC2)n1` [VPS34-IN1], the IC50 [6, 10] is reported as 0.05 to 0.125 µM and the “antiviral activity … in primary screen” value [1] is reported as “antiviral activity”.
